How the values were obtained:
[1] = test system: Alternaria solani; assay: Alternaria solani / tomato / leaf disc (early blight); assay type: in vivo; details: foliar, inoculated 2 days after application, vs untreated control
[2] = test system: Botryotinia fuckeliana; assay: Botryotinia fuckeliana (Botrytis cinerea) / liquid culture (gray mould); assay type: cell-based; details: 72 h, growth inhibition photometrically 3-4 days after application, read-out: control of Botryotinia fuckeliana
Outline: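 Botrytis cinerea conidia in Vogels nutrient broth added to test compound delivered in DMSO. Incubated at 24 °C; growth inhibition measured photometrically 3–4 days after application.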

[3] = test system: Glomerella lagenarium; assay: Glomerella lagenarium (Colletotrichum lagenarium) / liquid culture (anthracnose); assay type: cell-based; details: Colletotrichum orbiculare, 72 h, photometrically 3-4 days after application, read-out: control of Glomerella lagenarium
Outline: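 Conidia in potato dextrose broth added to test compound delivered as DMSO solution in microtiter plates; incubation at 24° C. Growth inhibition read photometrically 3-4 days after application.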

[4] = test system: Phaeosphaeria nodorum; assay: Phaeosphaeria nodorum (Septoria nodorum) / wheat / leaf disc preventative (glume blotch); assay type: in vivo; details: Parastagonospora nodorum, foliar, inoculated 2 days after application
Outline: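 Wheat leaf discs (cv. Kanzler) on agar were sprayed with formulated compound diluted in water, then inoculated with spores 2 days later. Incubation was at 20 °C and 75% relative humidity under 12 h light/12 h dark. Percent disease control versus untreated was scored 5–7 days after application.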

[5] = test system: Monographella nivalis; assay: Monographella nivalis (Microdochium nivale) / liquid culture (foot rot cereals); assay type: cell-based; details: 96 h, photometrically 4-5 days after application, read-out: control of Monographella nivalis
Outline: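 Test compound, applied as a DMSO solution, was challenged with fungal spores suspended in potato dextrose broth; after 4-5 days at 24° C, photometric readout gave inhibition of growth.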

[6] = test system: Mycosphaerella arachidis; assay: Mycosphaerella arachidis (Cercospora arachidicola) / liquid culture (early leaf spot); assay type: cell-based; details: 96 h, photometrically 4-5 days after application, read-out: control of Mycosphaerella arachidis
Outline: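 Photometric growth inhibition, read 4-5 days post-application at 24 °C, of Cercospora arachidicola spores suspended in potato dextrose broth and exposed to test compound delivered from DMSO solution.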

[7] = test system: Pyrenophora teres; assay: Pyrenophora teres / barley / leaf disc preventative (net blotch); assay type: in vivo; details: foliar, inoculated 2 days after application
Outline: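 Barley cv. Hasso leaf segments on agar sprayed with formulated compound in water, then inoculated with spore suspension 2 days later. Incubated at 20° C., 65% RH, 12 h light/12 h dark; disease control versus untreated assessed 5-7 days after application.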

[8] = test system: Mycosphaerella graminicola; assay: Mycosphaerella graminicola (Septoria tritici) / liquid culture (Septoria blotch); assay type: cell-based; details: Zymoseptoria tritici, 96 h, photometrically 4-5 days after application, read-out: control of Mycosphaerella graminicola
Outline: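 Growth inhibition measured by photometry 4-5 days post application, at 24° C incubation. Test compound supplied as DMSO solution; fungal conidia from cryostorage suspended directly in potato dextrose broth as inoculum.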

[9] = test system: fungi; assay: Fungicidal activity of separated stereoisomers compared (test not specified); details: comparison of SFC-separated isomers; test and fungus not given
[10] = test system: Sclerotinia sclerotiorum; assay: Sclerotinia sclerotiorum / liquid culture (cottony rot); assay type: cell-based; details: 72 h, photometrically 3-4 days after application, read-out: control of Sclerotinia sclerotiorum
Procedure: Example B18: Sclerotinia sclerotiorum/Liquid Culture (Cottony Rot) Mycelia fragments of a newly grown liquid culture of the fungus are directly mixed into a nutrient broth (potato dextrose broth). After placing a DMSO solution of test compound into a microtiter plate (96-well format) the nutrient broth containing the fungal material is added. The test plates are incubated at 24° C. and the inhibition of growth is determined photometrically 3-4 days after application.

[11] = test system: Fusarium culmorum; assay: microbe, parasite or virus in culture; assay type: cell-based; details: 72 h, read-out: control of Fusarium culmorum
[12] = test system: Blumeria graminis f. sp. tritici; assay: Blumeria graminis f. sp. tritici / wheat / leaf disc preventative (powdery mildew); assay type: in vivo; details: foliar, inoculated 1 day after application
Procedure: Example B7: Blumeria graminis f. Sp. Tritici (Erysiphe graminis f. Sp. Tritici)/Wheat/Leaf Disc Preventative (Powdery Mildew on Wheat) Wheat leaf segments cv. Kanzler are placed on agar in a multiwell plate (24-well format) and sprayed with the formulated test compound diluted in water. The leaf disks are inoculated by shaking powdery mildew infected plants above the test plates 1 day after application. The inoculated leaf disks are incubated at 20° C. and 60% relative humidity under a light regime of 24 h darkness followed by 12 h light/12 h darkness in a climate chamber and the activity of a compound is assessed as percent disease control compared to untreated when an appropriate level of disease damage appears on untreated check leaf segments (6-8 days after application).

Structure (SMILES) | pest or weed control at 200 ppm [1] [%] | inhibition of growth at 20 ppm [2] [%] | inhibition of growth at 20 ppm [3] [%] | pest or weed control at 200 ppm [4] [%] | inhibition of growth at 20 ppm [5] [%] | inhibition of growth at 20 ppm [6] [%] | pest or weed control at 200 ppm [7] [%] | inhibition of growth at 20 ppm [8] [%] | fungicidal activity relative to its stereoisomer [9] | inhibition of growth at 20 ppm [10] [%] | inhibition of growth at 20 ppm [11] [%] | pest or weed control at 200 ppm [12] [%]
C[C@H]1c2ccccc2[C@@](C)(c2cnn(C)c2)CN1C(=O)c1cc(-c2ccc(F)cc2F)on1 (single isomer, unassigned) [Compound P-6] | ≥ 80 | ≥ 80 | ≥ 80 | ≥ 80 | ≥ 80 | ≥ 80 | ≥ 80 | ≥ 80 | more fungicidally active than the compound of peak 3 | – | – | –
C[C@@H]1c2ccccc2[C@@](C)(c2cnn(C)c2)CN1C(=O)c1cc(-c2ccc(F)cc2F)on1 (single isomer, unassigned) [Compound P-9] | – | – | – | – | ≥ 80 | – | – | ≥ 80 | more fungicidally active than the compound of peak 2 | – | – | –
Cn1cc([C@@]2(C)CN(C(=O)c3cc(-c4ccc(F)cc4F)on3)Cc3ccccc32)cn1 (single isomer, unassigned) [Compound P-48] | ≥ 80 | ≥ 80 | ≥ 80 | ≥ 80 | ≥ 80 | ≥ 80 | ≥ 80 | ≥ 80 | more fungicidally active than the (R) isomer | ≥ 80 | – | –
Cc1c(C2CN(C(=O)c3cc(-c4ccc(F)cc4F)on3)Cc3ccccc32)cnn1C (single isomer, unassigned) [Compound P-223, [5-(2,4-difluorophenyl)isoxazol-3-yl]-[4-(1,5-dimethylpyrazol-4-yl)-3,4-dihydro-1H-isoquinolin-2-yl]methanone] | – | ≥ 80 | ≥ 80 | – | ≥ 80 | ≥ 80 | – | ≥ 80 | – | ≥ 80 | ≥ 80 | –
Cc1c(C2CN(C(=O)c3nnc(-c4ccc(F)cc4F)s3)Cc3ccccc32)cnn1C (stereo not drawn) [Compound P-65, [5-(2,4-difluorophenyl)-1,3,4-thiadiazol-2-yl]-[4-(1,5-dimethylpyrazol-4-yl)-3,4-dihydro-1H-isoquinolin-2-yl]methanone] | ≥ 80 | ≥ 80 | ≥ 80 | ≥ 80 | ≥ 80 | ≥ 80 | ≥ 80 | ≥ 80 | – | ≥ 80 | ≥ 80 | ≥ 80
Cc1c(C2CN(C(=O)c3cc(-c4ccc(F)cc4F)no3)Cc3ccccc32)cnn1C (stereo not drawn) [Compound P-108, [3-(2,4-difluorophenyl)isoxazol-5-yl]-[4-(1,5-dimethylpyrazol-4-yl)-3,4-dihydro-1H-isoquinolin-2-yl]methanone] | ≥ 80 | ≥ 80 | ≥ 80 | ≥ 80 | ≥ 80 | ≥ 80 | ≥ 80 | ≥ 80 | – | – | ≥ 80 | ≥ 80
Cn1ncc(C2CN(C(=O)c3nnc(-c4ccc(F)cc4F)s3)Cc3ccccc32)c1Cl (stereo not drawn) [Compound P-212, [4-(5-chloro-1-methyl-pyrazol-4-yl)-3,4-dihydro-1H-isoquinolin-2-yl]-[5-(2,4-difluorophenyl)-1,3,4-thiadiazol-2-yl]methanone] | – | ≥ 80 | ≥ 80 | – | ≥ 80 | ≥ 80 | – | ≥ 80 | – | ≥ 80 | ≥ 80 | –

Source: patent publication US20250325534A1, “MICROBIOCIDAL TETRAHYDROISOQUINOLINE DERIVATIVES” (SYNGENTA CROP PROTECTION AG, priority 2021, published 2025)
